What all share (format): biochemical
The target in test [1] is T1, 26S proteasome, β2 subunit (trypsin-like activity) (Homo sapiens, UniProt Q99436).
T1 construct: gene PSMB7; purified human 26S proteasome; with other subunits of the 26S proteasome
T1 sequence (Q99436 44-277): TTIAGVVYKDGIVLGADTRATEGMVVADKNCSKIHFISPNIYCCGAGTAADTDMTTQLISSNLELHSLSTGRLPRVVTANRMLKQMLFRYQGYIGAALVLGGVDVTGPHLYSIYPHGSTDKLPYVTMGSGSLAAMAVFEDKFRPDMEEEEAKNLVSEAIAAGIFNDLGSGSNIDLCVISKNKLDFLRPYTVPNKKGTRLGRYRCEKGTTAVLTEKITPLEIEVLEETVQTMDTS
In words: fluorogenic peptidase assay of purified human 26S proteasome with Ac-Arg-Leu-Arg-AMC.

Test [2] has as its target T2, 26S proteasome, β5 subunit (chymotrypsin-like activity) (Homo sapiens, UniProt P28074).
T2 construct: gene PSMB5; purified human 26S proteasome; with other subunits of the 26S proteasome
T2 sequence (P28074 60-263): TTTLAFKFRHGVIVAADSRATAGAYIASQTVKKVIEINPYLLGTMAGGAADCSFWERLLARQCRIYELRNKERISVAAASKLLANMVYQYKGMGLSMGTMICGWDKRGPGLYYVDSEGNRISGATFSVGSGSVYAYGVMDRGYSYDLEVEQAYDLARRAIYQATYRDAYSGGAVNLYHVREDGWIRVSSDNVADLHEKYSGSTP
As to the kind of experiment: fluorogenic peptidase assay of purified human 26S proteasome with Suc-Leu-Leu-Val-Tyr-AMC.

For test [3], the target named is T3, 26S proteasome, β1 subunit (caspase-like activity) (Homo sapiens, UniProt P28072).
T3 construct: gene PSMB6; purified human 26S proteasome; with other subunits of the 26S proteasome
T3 sequence (P28072 35-239): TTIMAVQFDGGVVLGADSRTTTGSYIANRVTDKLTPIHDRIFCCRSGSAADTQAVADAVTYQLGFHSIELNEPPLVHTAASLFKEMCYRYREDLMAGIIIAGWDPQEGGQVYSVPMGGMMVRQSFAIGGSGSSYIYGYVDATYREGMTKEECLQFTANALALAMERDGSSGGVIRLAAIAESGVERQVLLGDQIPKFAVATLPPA
In words: peptidase assay of purified human 26S proteasome with Z-Nle-Pro-Nle-Asp-aminoluciferin.

Consider `O=c1cc(-c2ccc(O)cc2)oc2cc(O)cc(O)c12` [apigenin], for which the half-maximal inhibitory concentration (IC50) – broadly, the concentration needed to halve the response being measured – is 20 µM in test [1], 11.5 µM in test [2] and 1.5 µM in test [3].

The record behind these values is paper PMC4928072, “Dietary apigenin potentiates the inhibitory effect of interferon-α on cancer cell viability through inhibition of 26S proteasome-mediated interferon receptor degradation” (Food & Nutrition Research, 2016).
